Laboratory results: patent publication US20110002843A1, “METHOD OF DETECTING MYOCARDIAL DYSFUNCTION IN PATIENTS HAVING A HISTORY OF ASTHMA OR BRONCHOSPASM” (priority 2005, published 2011)

Assay: Pulmonary responses and safety in human subjects with mild, intermittent asthma (single-blind and double-blind parts)
Assay type: in vivo
Details: for FEV1 (L) Mean % Change from Baseline (SD) / FEV1 (L) Mean (SD) / FVC Mean % Change from Baseline (SD) / FVC Mean (SD) / changes from baseline in mean FEV1, FEV1 (% predicted), FEF25%-75%, FVC / subjects with treatment-emergent AEs / FEF25%-75% Mean % Change from Baseline (SD) / FEF25%-75% Mean (SD) / FEV1 (% predicted) Mean % Change from Baseline (SD) / FEV1 (% predicted) Mean (SD): single-blind
Procedure: Methodology: The study consisted of 2 parts, a Single-Blind Part and a Double-Blind Part. The dose escalating, Single-Blind Part enrolled subjects with mild, intermittent asthma and consisted of 3 sequentially enrolled dosing cohorts with 8 subjects per cohort, such that Dosing Cohorts 1, 2 and 3 received binodenoson target doses of 0.5 μg/kg, 1.0 μg/kg and 1.5 μg/kg, respectively. All 8 subjects in a dosing cohort must have completed dosing at the assigned dose and a medical review of each cohort must have been acceptable before enrollment in the next cohort began. The Double-Blind Part was initiated only if the medical review of all safety data from the Single-Blind Part was acceptable. In the Double Blind Part, subjects with mild, intermittent asthma were randomly assigned in a 2:1 ratio to receive either binodenoson 1.5 μg/kg (n=40 planned) or placebo control (n=20 planned).
Both study parts were comprised of Screening, Treatment and Follow-Up Visits. The Screening Visit occurred 7 to 14 days before the Treatment Visit and consisted of a physical examination, medical history and application of inclusion and exclusion criteria. Subjects were instructed to measure peak expiratory flow (PEF) and asthma symptoms during a period of at least 7 days prior to the Treatment Visit. Subjects were to continue to meet all Screening eligibility criteria at the Treatment Visit and forced expiratory volume in 1 second (FEV1) was to remain within 80% of predicted for subjects to be eligible for dosing. All subjects enrolled in the Single-Blind Part and subjects randomized to receive binodenoson in the Double-Blind Part received 3 intravenous (IV) injections during the Treatment Visit: (1) placebo; (2) a low, challenge binodenoson dose to detect potential hypersensitivity reactions; and (3) an assigned binodenoson test dose. Subjects randomized to receive placebo in the Double Blind Part received 3 placebo injections. The Follow-Up Visit occurred 2 to 4 days following the Treatment Visit.
Eligible subjects were males or non-pregnant, nonlactating females ≧18 years of age weighing <350 pounds with a medical history of mild, intermittent asthma (as defined in the “Guidelines for the Diagnosis and Management of Asthma” prepared by the National Institutes of Health [NIH]) within 6 months of Screening.
Subjects were not eligible for the study if they had resting sitting systolic blood pressure (SBP)<100 or >140 mmHg, diastolic blood pressure (DBP)<60 or >90 mmHg, pulse rate >95 beats per minute (bpm), or a lower limit FEV1 at rest of <80% of the predicted value at Screening.
Dose and Mode of Administration: A stock solution of binodenoson (25 μg/mL) was administered as a bolus injection over 30 seconds (0.1 μg/kg=0.004 mL/kg of stock solution, 0.5 μg/kg=0.02 mL/kg of stock solution, 1.0 μg/kg=0.04 mL/kg of stock solution and 1.5 μg/kg=0.06 mL/kg of stock solution).
Duration of Treatment: Each subject received three 30-second bolus IV injections separated by ≧90 minutes in both the Single Blind and Double-Blind Parts of the study.
Criteria for Evaluation: The primary safety endpoint was clinically significant bronchoconstriction, defined as a ≧20% decrease in FEV1 from the predrug baseline following binodenoson administration. Other safety assessments included need for rescue medication, regular measurements of pulmonary function (FEV1 [% predicted], forced vital capacity [FVC] and forced expiratory flow during the middle half of the FVC [FEF25%-75%]), vital signs, pulse oximetry, physical examination findings, electrocardiogram (ECG) results, clinical laboratory results and adverse events.
Statistical Methods: All data collected in the study were summarized by treatment (placebo; 0.1 μg/kg binodenoson challenge; or 0.5, 1.0, or 1.5 μg/kg binodenoson) and study Part (Single-Blind or Double-Blind with univariate summaries). Continuous variables were summarized with descriptive statistics (n, mean, median, standard deviation [SD] and minimum and maximum). […]

[1] = Cohort 3, second injection 0.1 μg/kg iv bolus, 90 minutes
[2] = third injection 0.5 μg/kg iv bolus, 5 min
[3] = third injection 0.5 μg/kg iv bolus, 15 min
[4] = third injection 0.5 μg/kg iv bolus, 45 min
[5] = third injection 0.5 μg/kg iv bolus, 90 min
[6] = third injection 1.0 μg/kg iv bolus, 5 min
[7] = third injection 1.0 μg/kg iv bolus, 15 min
[8] = third injection 1.0 μg/kg iv bolus, 45 min
[9] = third injection 1.0 μg/kg iv bolus, 90 min
[10] = third injection 1.5 μg/kg iv bolus, 5 min
[11] = third injection 1.5 μg/kg iv bolus, 15 min
[12] = third injection 1.5 μg/kg iv bolus, 45 min
[13] = third injection 1.5 μg/kg iv bolus, 90 min

Structure (SMILES): Nc1nc(N/N=C/C2CCCCC2)nc2c1ncn2[C@@H]1O[C@H](CO)[C@@H](O)[C@H]1O (stereo in doubt) [Binodenoson, 2-{2-[(Cyclohexyl)methylene]hydrazino}adenosine]
- FEV1 (L) Mean % Change from Baseline (SD) [1]: 0.901 (2.441) %
- FEV1 (L) Mean (SD) [1]: 3.343 (0.657) L
- FVC Mean % Change from Baseline (SD) [1]: −0.163 (0.894) %
- FVC Mean (SD) [1]: 4.334 (0.850)
- changes from baseline in mean FEV1, FEV1 (% predicted), FEF25%-75%, FVC (after binodenoson 0.1 μg/kg injection): No clinically significant changes from baseline
- subjects with treatment-emergent AEs (binodenoson 0.1 μg/kg): No subjects experienced treatment-emergent AEs
- subjects with treatment-emergent AEs (third injection 0.5 μg/kg): 25%
- FEF25%-75% Mean % Change from Baseline (SD) [2]: −3.549 (6.717) %
- FEF25%-75% Mean (SD) [2]: 3.111 (0.915)
- FEV1 (% predicted) Mean % Change from Baseline (SD) [2]: −2.3 (3.4) %
- FEV1 (% predicted) Mean (SD) [2]: 92.6 (12.5) % predicted
- FEV1 (L) Mean % Change from Baseline (SD) [2]: −2.327 (3.977) %
- FEV1 (L) Mean (SD) [2]: 3.995 (0.820) L
- FVC Mean % Change from Baseline (SD) [2]: −1.162 (2.708) %
- FVC Mean (SD) [2]: 5.581 (1.151)
- FEF25%-75% Mean % Change from Baseline (SD) [3]: −1.773 (3.375) %
- FEF25%-75% Mean (SD) [3]: 3.169 (0.885)
- FEV1 (% predicted) Mean % Change from Baseline (SD) [3]: −0.9 (2.1) %
- FEV1 (% predicted) Mean (SD) [3]: 94.0 (11.9) % predicted
- FEV1 (L) Mean % Change from Baseline (SD) [3]: −0.967 (2.171) %
- FEV1 (L) Mean (SD) [3]: 4.049 (0.800) L
- FVC Mean % Change from Baseline (SD) [3]: −0.033 (1.645) %
- FVC Mean (SD) [3]: 5.640 (1.130)
- FEF25%-75% Mean % Change from Baseline (SD) [4]: −2.338 (5.471) %
- FEF25%-75% Mean (SD) [4]: 3.158 (0.899)
- FEV1 (% predicted) Mean % Change from Baseline (SD) [4]: −1.5 (2.1) %
- FEV1 (% predicted) Mean (SD) [4]: 93.4 (11.7) % predicted
- FEV1 (L) Mean % Change from Baseline (SD) [4]: −1.455 (2.494) %
- FEV1 (L) Mean (SD) [4]: 4.034 (0.821) L
- FVC Mean % Change from Baseline (SD) [4]: −0.838 (3.371) %
- FVC Mean (SD) [4]: 5.591 (1.122)
- FEF25%-75% Mean % Change from Baseline (SD) [5]: −3.732 (9.304) %
- FEF25%-75% Mean (SD) [5]: 3.106 (0.892)
- FEV1 (% predicted) Mean % Change from Baseline (SD) [5]: −2.0 (3.4) %
- FEV1 (% predicted) Mean (SD) [5]: 92.9 (12.5) % predicted
- FEV1 (L) Mean % Change from Baseline (SD) [5]: −2.365 (3.864) %
- FEV1 (L) Mean (SD) [5]: 4.000 (0.840) L
- FVC Mean % Change from Baseline (SD) [5]: −0.963 (3.579) %
- FVC Mean (SD) [5]: 5.600 (1.196)
- subjects with treatment-emergent AEs (third injection 1.0 μg/kg): 50%
- FEF25%-75% Mean % Change from Baseline (SD) [6]: 2.938 (17.701) %
- FEF25%-75% Mean (SD) [6]: 3.571 (1.546)
- FEV1 (% predicted) Mean % Change from Baseline (SD) [6]: −0.1 (5.7) %
- FEV1 (% predicted) Mean (SD) [6]: 93.5 (11.5) % predicted
- FEV1 (L) Mean % Change from Baseline (SD) [6]: −0.071 (5.830) %
- FEV1 (L) Mean (SD) [6]: 3.889 (0.883) L
- FVC Mean % Change from Baseline (SD) [6]: 0.316 (3.947) %
- FVC Mean (SD) [6]: 5.106 (1.192)
- FEF25%-75% Mean % Change from Baseline (SD) [7]: 1.896 (7.770) %
- FEF25%-75% Mean (SD) [7]: 3.534 (1.364)
- FEV1 (% predicted) Mean % Change from Baseline (SD) [7]: 0.0 (3.8) %
- FEV1 (% predicted) Mean (SD) [7]: 93.6 (13.0) % predicted
- FEV1 (L) Mean % Change from Baseline (SD) [7]: 0.113 (3.892) %
- FEV1 (L) Mean (SD) [7]: 3.899 (0.884) L
- FVC Mean % Change from Baseline (SD) [7]: −0.138 (3.728) %
- FVC Mean (SD) [7]: 5.078 (1.156)
- FEF25%-75% Mean % Change from Baseline (SD) [8]: 7.715 (11.942) %
- FEF25%-75% Mean (SD) [8]: 3.759 (1.554)
- FEV1 (% predicted) Mean % Change from Baseline (SD) [8]: 0.6 (6.3) %
- FEV1 (% predicted) Mean (SD) [8]: 94.3 (16.4) % predicted
- FEV1 (L) Mean % Change from Baseline (SD) [8]: 0.344 (6.156) %
- FEV1 (L) Mean (SD) [8]: 3.926 (1.012) L
- FVC Mean % Change from Baseline (SD) [8]: −1.792 (6.201) %
- FVC Mean (SD) [8]: 5.020 (1.300)
- FEF25%-75% Mean % Change from Baseline (SD) [9]: 9.498 (11.643) %
- FEF25%-75% Mean (SD) [9]: 3.830 (1.595)
- FEV1 (% predicted) Mean % Change from Baseline (SD) [9]: 2.6 (4.5) %
- FEV1 (% predicted) Mean (SD) [9]: 96.3 (15.9) % predicted
- FEV1 (L) Mean % Change from Baseline (SD) [9]: 2.406 (4.249) %
- FEV1 (L) Mean (SD) [9]: 4.005 (0.983) L
- FVC Mean % Change from Baseline (SD) [9]: −0.051 (2.348) %
- FVC Mean (SD) [9]: 5.105 (1.262)
- subjects with treatment-emergent AEs (third injection 1.5 μg/kg): 75%
- FEF25%-75% Mean % Change from Baseline (SD) [10]: 2.411 (12.016) %
- FEF25%-75% Mean (SD) [10]: 2.880 (0.584)
- FEV1 (% predicted) Mean % Change from Baseline (SD) [10]: 0.4 (2.6) %
- FEV1 (% predicted) Mean (SD) [10]: 91.6 (8.1) % predicted
- FEV1 (L) Mean % Change from Baseline (SD) [10]: 0.336 (2.702) %
- FEV1 (L) Mean (SD) [10]: 3.344 (0.610) L
- FVC Mean % Change from Baseline (SD) [10]: 0.031 (2.871) %
- FVC Mean (SD) [10]: 4.334 (0.845)
- FEF25%-75% Mean % Change from Baseline (SD) [11]: 2.110 (5.540) %
- FEF25%-75% Mean (SD) [11]: 2.890 (0.645)
- FEV1 (% predicted) Mean % Change from Baseline (SD) [11]: −0.5 (2.0) %
- FEV1 (% predicted) Mean (SD) [11]: 90.8 (7.8) % predicted
- FEV1 (L) Mean % Change from Baseline (SD) [11]: −0.380 (2.306) %
- FEV1 (L) Mean (SD) [11]: 3.330 (0.666) L
- FVC Mean % Change from Baseline (SD) [11]: −1.335 (2.366) %
- FVC Mean (SD) [11]: 4.281 (0.882)
- FEF25%-75% Mean % Change from Baseline (SD) [12]: −1.475 (6.450) %
- FEF25%-75% Mean (SD) [12]: 2.803 (0.705)
- FEV1 (% predicted) Mean % Change from Baseline (SD) [12]: −0.4 (2.3) %
- FEV1 (% predicted) Mean (SD) [12]: 90.9 (7.9) % predicted
- FEV1 (L) Mean % Change from Baseline (SD) [12]: −0.439 (2.820) %
- FEV1 (L) Mean (SD) [12]: 3.331 (0.682) L
- FVC Mean % Change from Baseline (SD) [12]: −0.179 (2.938) %
- FVC Mean (SD) [12]: 4.326 (0.872)
- FEF25%-75% Mean % Change from Baseline (SD) [13]: 0.469 (2.514) %
- FEF25%-75% Mean (SD) [13]: 2.851 (0.654)
- FEV1 (% predicted) Mean % Change from Baseline (SD) [13]: 0.6 (1.3) %
- FEV1 (% predicted) Mean (SD) [13]: 91.9 (7.4) % predicted
- FEV1 (L) Mean % Change from Baseline (SD) [13]: 0.617 (1.762) %
- FEV1 (L) Mean (SD) [13]: 3.365 (0.680) L
- FVC Mean % Change from Baseline (SD) [13]: 0.537 (2.460) %
- FVC Mean (SD) [13]: 4.358 (0.878)
- changes from baseline in mean FEV1, FEV1 (% predicted), FEF25%-75%, FVC (third injection (0.5, 1.0, 1.5 μg/kg)): no clinically significant changes from baseline
- deaths, serious AEs, premature discontinuations due to AEs (whole study): no deaths, serious AEs, or premature discontinuations due to AEs
- laboratory evaluations, ECG, pulse oximetry (whole study): No clinically meaningful results
